Data: ChEMBL document CHEMBL2069165, “Synthesis and evaluation of substituted hexahydronaphthalenes as novel inhibitors of the Mcl-1/BimBH3 interaction” (Bioorg Med Chem Lett, 2012)

Assays:
[1] = target: T1, Induced myeloid leukemia cell differentiation protein Mcl-1/Bcl-2-like protein 11 (Homo sapiens) (UniProt Q07820+O43521); experiment: Inhibition of GST-Mcl-1/BH3 domain of Bim interaction at 25 uM after 1 hr by ELISA; type: protein assay
[2] = target: Induced myeloid leukemia cell differentiation protein Mcl-1/Bcl-2-like protein 11 (Homo sapiens, UniProt Q07820); experiment: Inhibition of GST-Mcl-1/BH3 domain of Bim interaction after 1 hr by ELISA; type: protein assay
Chain of Induced myeloid leukemia cell differentiation protein Mcl-1/Bcl-2-like protein 11 (Q07820 whole entry, the tested form may be a part): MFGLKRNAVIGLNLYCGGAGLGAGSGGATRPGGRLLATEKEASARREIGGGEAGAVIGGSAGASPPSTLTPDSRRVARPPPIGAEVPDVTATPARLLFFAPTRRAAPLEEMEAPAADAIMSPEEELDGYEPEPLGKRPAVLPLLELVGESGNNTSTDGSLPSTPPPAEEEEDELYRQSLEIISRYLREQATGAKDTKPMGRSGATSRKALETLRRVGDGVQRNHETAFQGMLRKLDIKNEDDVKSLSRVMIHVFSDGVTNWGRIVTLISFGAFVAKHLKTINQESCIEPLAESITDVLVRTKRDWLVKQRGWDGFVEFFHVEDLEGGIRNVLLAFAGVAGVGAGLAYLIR
Chain of Induced myeloid leukemia cell differentiation protein Mcl-1/Bcl-2-like protein 11 (O43521 whole entry, further chain, the tested form may be a part): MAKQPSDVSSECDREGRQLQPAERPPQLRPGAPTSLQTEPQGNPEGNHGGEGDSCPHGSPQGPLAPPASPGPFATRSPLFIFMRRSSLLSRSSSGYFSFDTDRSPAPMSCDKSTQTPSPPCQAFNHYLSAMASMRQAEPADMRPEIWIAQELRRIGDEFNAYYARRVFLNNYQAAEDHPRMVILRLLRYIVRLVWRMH

MDA-MB-468 = experiment: Growth inhibition of human MDA-MB-468 cells at 100 uM after 72 to 120 hrs by MTT assay; type: functional; details: read-out: GI
[3] = target: T1, Induced myeloid leukemia cell differentiation protein Mcl-1/Bcl-2-like protein 11 (Homo sapiens); experiment: Inhibition of GST-Mcl-1/BH3 domain of Bim interaction in human MDA-MB-468 cells at 50 uM after 24 hrs by Western blotting relative to control; type: cell-based
[4] = target: T1, Induced myeloid leukemia cell differentiation protein Mcl-1/Bcl-2-like protein 11 (Homo sapiens); experiment: Inhibition of GST-Mcl-1/BH3 domain of Bim interaction in human MDA-MB-468 cells at 25 uM after 24 hrs by Western blotting relative to control; type: cell-based
[5] = Solubility of the compound in human MDA-MB-468 cell culture medium at >100 uM; type: physicochemical

T1 sequence (O43521 whole entry, looked up, the tested form may be a part): as the sequence (O43521 whole entry, further chain, the tested form may be a part) above
T1 sequence (Q07820 whole entry, looked up, the tested form may be a part): as the sequence (Q07820 whole entry, the tested form may be a part) above

Row | Compound | inhibition [1] | other results
1 | COCOC[C@@]12C=C[C@@H](C(C)(C)C(=O)N3CCOCC3)C[C@@H]1C=C(C)C[C@@H]2OC(=O)NC1CCCCC1 (relative stereo) | 26.5% | –
2 | COCOC[C@@]12C=C[C@@H](C(C)(C)C(=O)OC)C[C@@H]1C=C(C)C[C@@H]2OC(=O)NC1CCCCC1 | 34.8% | –
3 | C=C(C)CNC(=O)C(C)(C)C1C=CC2(COCOC)C(C=C(C)CC2OC(=O)Nc2cccc(Cl)c2)C1 (racemic) | 74.3% | IC50 [2]: 8.3 µM; inhibition of growth at 100 µM (MDA-MB-468): 80%; inhibition [3]: 46.4%; inhibition [4]: 70.6%; solubility [5]: Insoluble
4 | CC(C)Cc1cc(-c2ccc(-c3ccc(CCC(=O)O)cc3CC(C)C)cc2Cc2ccccc2)ccc1OCC(=O)O | – | inhibition [3]: 55.7%; inhibition [4]: 61.9%
5 | C=C(C)CNC(=O)C(C)(C)[C@@H]1C=C[C@@]2(COCOC)[C@@H](OC(=O)NCc3ccccc3)CC(C)=C[C@H]2C1 (relative stereo) | 40.3% | –
6 | COCOC[C@@]12C=C[C@@H](C(C)(C)C(=O)NCc3ccccc3)C[C@@H]1C=C(C)C[C@@H]2OC(=O)NC1CCCCC1 (relative stereo) | 53.9% | –
7 | COC(=O)C(C)(C)[C@@H]1C=C[C@@]2(CO)[C@@H](O)CC(C)=C[C@H]2C1 | 25% | –
8 | C=C(C)COC(=O)C(C)(C)[C@@H]1C=C[C@@]2(COCOC)[C@@H](OCC(=C)C)CC(C)=C[C@H]2C1 | 31.2% | –
9 | C=C(C)CNC(=O)C(C)(C)[C@@H]1C=C[C@@]2(COCOC)[C@@H](OC(=O)Nc3ccccc3)CC(C)=C[C@H]2C1 (relative stereo) | 61.8% | –
10 | COCOC[C@@]12C=C[C@@H](C(C)(C)C(=O)OCc3ccccc3)C[C@@H]1C=C(C)C[C@@H]2OCc1ccccc1 | 64.9% | IC50 [2]: 13.1 µM
11 | C=C(C)CNC(=O)C(C)(C)[C@@H]1C=C[C@@]2(COCOC)[C@@H](OC(=O)NC(C)C)CC(C)=C[C@H]2C1 (relative stereo) | 31.2% | –
12 | C=C(C)CNC(=O)C(C)(C)[C@@H]1C=C[C@@]2(COCOC)[C@@H](OC(=O)NC3CCCCC3)CC(C)=C[C@H]2C1 (relative stereo) | 53.8% | –
13 | C=C(C)CNC(=O)C(C)(C)[C@@H]1C=C[C@@]2(COCOC)[C@@H](O)CC(C)=C[C@H]2C1 | 17.1% | –
14 | COCOC[C@@]12C=C[C@@H](C(C)(C)C(=O)O)C[C@@H]1C=C(C)C[C@@H]2O | 18.2% | –
15 | COCOC[C@@]12C=C[C@@H](C(C)(C)C(=O)NCc3ccc(Br)cc3)C[C@@H]1C=C(C)C[C@@H]2OC(=O)NC1CCCCC1 (relative stereo) | 64.4% | IC50 [2]: 17 µM
16 | O=C(O)CCc1ccc(-c2ccc(-c3ccc(OCC(=O)O)cc3)cc2)cc1 | – | inhibition [3]: 107%; inhibition [4]: 96.9%
17 | C=C(C)CNC(=O)C(C)(C)[C@@H]1C=C[C@@]2(COCOC)[C@@H](OC(=O)NC3CCCC3)CC(C)=C[C@H]2C1 (relative stereo) | 19.7% | –
